Columns and labels:
[1] = Plantar carrageenin edema test (anti-inflammatory); format: in vivo, albino Sprague-Dawley male rats; details: gastric catheter; for Inhibition % M ± σ: complementary value to area relative inflammation; for % Area Relative Inflammation (M ± σ): control = 100%
Description: The anti-inflammatory activity of two compounds was studied by means of the test of the plantar carrageenin edema (C. A. Winter, Proc. Soc. Exp. Brol. Med. 111, 544-47 (1962). The method used consists of preparing homogeneous lots of albino Sprague-Dawley male rats with weights of from 180-200 gr, to which are administered, by gastric catheter, the test compound suspended in a vehicle containing 0.2% CMC and 0.1% Tween 80, sixty minutes before the production of the subplantar edema. […] Immediately after this, all the rats received via oral administration 20 ml/kg of distilled water to attain uniform hydration. 60 minutes later a 1% carrageenin solution in physiologic serum was administered subcutanaceously into the left rear leg of each rat, at a dosage of 0.1 ml/rat. The same amount of physiologic serum was then injected into the right rear leg of each rat.
The plantar amount of the left and right rear extremities of each rat was determined before the administration of the carrageenin solution, and 1, 2, 3, 4, 5 and 6 hours after the administration thereof by means of a mercury plethysmograph, Ugo Basile Model 7.100. Indomethacin was used as a sample drug for purposes of comparison. Results were calculated as percentages representing the value indicated for each area relative to the value of the areas for the control group to which were assigned the value of 100% inflammation. A complementary value, the percentage of inhibition, was also calculated from the data. The arithmetic average and standard deviation (M±σ) were calculated for the obtained values as to the volumes of each leg, normal or inflamed, for each animal in each group (control and treated).

[2] = Acute toxicity by oral administration to rats; details: for LD0: oral, rats
Description: The acute toxicity of the foregoing compounds according to the present invention was studied by oral administration thereof to rats. The LD0 and LD50 values were determined, together with the limits of reliability as determined by the method of Litchfield and Wilcoxon.

[3] = Fetal and teratogenous toxicity; format: in vivo, Sprague-Dawley rats and first generation fetuses; details: 15, 50 and 75 mg/kg/day oral during organogenesis
[4] = Test of abdominal contractions by acetic acid (analgesic); format: in vivo, male mice; details: gastric catheter, 16 mice, half an hour before acetic acid i.p.
Description: (§1) The new 2-[(2,6-dichlorophenyl)amino]phenylacetoxyacetyl derivatives, according to the present invention, are compounds of therapeutic use with anti-inflammatory and analgesic pharmacologic properties, as shown by experimental pharmacologic data presented below. The analgesic activity of the compound (I) where R=H was determined by three known methods as follows.
This test was carried out according to the experimental model described by Koster R., Anderson, M. and De Bear, E. J. Fed. Proc., 18, 412 (1959). A suspension of the product to be tested was administered to a group of male mice through a gastric catheter half an hour before injecting the mice intraperitoneally with 0.2 ml of a 2% acetic acid solution. The number of abdominal contractions, manifested by drawing in of the rear third of the animal as a consequence of the chemical aggression incited by the acetic acid, were then counted.

[5] = Hot plate thermal stimulus test on mice (analgesic); format: in vivo; details: gastric catheter, hot plate 56° C., 10 mice, vs control mice
Description: as §1
This test is carried out according to the experimental model of Wolfe, G. and MacDonal, A. D., described in 3. Pharm. Exper. Therap. 80, 300 (1944). This test consists of administering, through a gastric catheter, a suspension of the test compound at the indicated dosages. After 30 minutes, 1 h., 11/2 h. and 2 h. the determinations were made. Mice were placed onto a hot plate at a temperature of 56° C. Table 2 indicates the percentage of protection from pain afforded by the dosages of the test compound in comparison with a group of control mice to which no test compound was administered.

[6] = Podolorimetric test in a rat (analgesic, yeast-infected leg); format: in vivo; details: 10 rats, vs control rats
Description: as §1
This test is based upon the method described by Randall, L. and Selitto, 3. Arch. Int. Pharmacodyn. 111, 409 (1957), consisting of administering the drug in a 1% carboxymethylcellulose (CMC) suspension. The test compound is administered to the rat, and 30 minutes thereafter a 20% yeast suspension is administered into the left leg of the rat and the same amount of physiologic serum is administered to the right leg of the rat. The threshold of the weight supported by both legs is determined 1 h., 2 h. and 4 h. after the administration of the yeast. Table 3 states the percentage of protection in terms of increased weight supported by the yeast-infected leg, relative to the dosage of the test compound, in comparison with a group of control rats to which no test compound was administered.

SMILES | Inhibition % M ± σ ([1]; 3.75 mg/kg, 32 animals) [%] | % Area Relative Inflammation (M ± σ) ([1]; 3.75 mg/kg, 32 animals) [%] | LD0 [2] [mg/kg] | LD50 ([2]; rat, in vivo, po) [mg/kg] | teratogenous effects [3] | toxic effects on the gestating females [3] | % PROTECTION (CONTROL OF CONTRACTIONS) ([4]; 100 mg/kg) [%] | % PROTECTION (CONTROL OF CONTRACTIONS) ([4]; 250 mg/kg) [%] | % PROTECTION ([5]; 20 mg/kg) [%] | % PROTECTION ([5]; 40 mg/kg) [%] | Inhibition % M ± σ ([1]; 3.0 mg/kg, 32 animals) [%] | % Area Relative Inflammation (M ± σ) ([1]; 3.0 mg/kg, 32 animals) [%] | % PROTECTION (increased weight supported by the yeast-infected leg) ([6]; 2.5 mg/kg) [%] | % PROTECTION (increased weight supported by the yeast-infected leg) ([6]; 10 mg/kg) [%] | Inhibition % M ± σ ([1]; 2.5 mg/kg, 40 animals) [%] | % Area Relative Inflammation (M ± σ) ([1]; 2.5 mg/kg, 40 animals) [%]
O=C(COC(=O)Cc1ccccc1Nc1c(Cl)cccc1Cl)OCc1ccccc1 [I, R = CH2 --C6 H5, Benzyl 2-[(2,6-dichlorophenyl)amino]phenylacetoxyacetate] | 35.96 | 64.04 ± 7.91 | 38.51 | 95.3 | did not have any teratogenous effects | did not produce any toxic effects on the gestating females | – | – | – | – | – | – | – | – | – | –
O=C(O)COC(=O)Cc1ccccc1Nc1c(Cl)cccc1Cl [I, R = H, 2-[(2,6-dichlorophenyl)amino]phenylacetoxyacetic acid] | – | – | 68.03 | – | did not have any teratogenous effects | did not produce any toxic effects on the gestating females | 30.81 | 67.62 | 22.44 | 24.80 | 33.75 | 63.25 ± 5.88 | 32.05 | 45.45 | – | –
COc1ccc2c(c1)c(CC(=O)O)c(C)n2C(=O)c1ccc(Cl)cc1 [INDOMETHACIN, Indomethacin, reference compound] | – | – | – | – | – | – | – | – | – | – | – | – | – | – | 46.52 | 53.48 ± 7.82

Source: patent publication US4548952A, “2-[(2,6-Dichlorophenyl)amino]phenylacetoxyacetyl derivatives and therapeutic compositions containing same” (priority 1983, dated 1985)
